By EC50 is commonly meant the concentration needed to bring the measured effect to its halfway point. Lower therefore signals a more potent agent.

In this test the target is T1, human GLP-1R (Homo sapiens, UniProt P43220).
T1 construct: host or cells: HEK293
T1 sequence (P43220 24-463): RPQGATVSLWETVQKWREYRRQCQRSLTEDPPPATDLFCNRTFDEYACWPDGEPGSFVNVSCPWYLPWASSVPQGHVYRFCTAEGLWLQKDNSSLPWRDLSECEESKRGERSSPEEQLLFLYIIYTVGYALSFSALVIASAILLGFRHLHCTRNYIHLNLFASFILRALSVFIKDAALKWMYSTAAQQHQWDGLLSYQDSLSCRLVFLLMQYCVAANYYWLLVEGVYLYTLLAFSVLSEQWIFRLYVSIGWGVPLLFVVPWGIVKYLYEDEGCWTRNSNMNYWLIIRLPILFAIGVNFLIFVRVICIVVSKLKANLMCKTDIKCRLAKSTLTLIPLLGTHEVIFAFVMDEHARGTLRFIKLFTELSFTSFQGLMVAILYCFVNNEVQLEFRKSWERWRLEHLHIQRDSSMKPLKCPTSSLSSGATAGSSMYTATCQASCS
As to the kind of experiment: GLP-1R cAMP assay (Example B1b, HTRF, 30 min at 37°). Type of test: cell-based. As to conditions: cAMP accumulation in HEK293 expressing human GLP-1R, no BETP, 30 min at 37° (Method B1b), Table 1. On the procedure:
Assay was carried out with HEK293 expressing human GLP-1R using HTRF assay, developed by Wuxi Apptec. The method is a competitive assay between native cAMP produced by the cells and exogenous cAMP labeled with a proprietary dye d2. The tracer binding is visualized by a mAb anti-cAMP labeled with Cryptate. The signal (i.e. energy transfer) is inversely proportional to the concentration of CAMP in either standard or experimental sample. Compounds were tested in the absence of BETP. Ten microliter of cell suspension in assay buffer (5 mM HEPES, 500 μM IBMX, 0.1% BSA) were added to each well (1,000 cells per well) in a low volume 384-well plate for the assay. Serially diluted compounds were added in 100 nL volume to duplicate wells, by Labcyte Echo. GLP-1 (7-37) was used as positive control. Assay plate was incubated for 30 minutes at 37°. Stock of cAMP Detection Solution was prepared by mixing 38 parts of cAMP lysis buffer, 1 part of cAMP-D2, 1 part of anti-cAMP cryptate reagent (Cisbio #62AM4PEJ). Ten microliter of the cAMP Detection Solution was added to each well, and the assay plate was incubated for 1 hour at room temperature in the dark. Plates were read on Envision plate reader. The data were analyzed by ScreenUltra in Dotmatics, with % activation expressed using following formula: (Signal ratio […]*10000−negative control)/(postive control−negative control)*100. Dose response curves were plotted and EC50 values calculated by non-linear regression using 4-parameter fit. The potency (EC50) values for cAMP accumulation in HEK293 cells are reported in the Table 1 below (for compounds ID 610-708).
(In general: cAMP levels reflect the balance of adenylyl cyclase and phosphodiesterase activity.)
With `Cc1cc(-n2nc3c(c2-n2ccn(-c4ccc5c(cnn5C)c4F)c2=O)[C@@H]2CC[C@H](C3)N2C(=O)c2c(F)c3cc(C4CCOC(C)(C)C4)ccc3n2[C@@]2(c3noc(=O)[nH]3)C[C@@H]2C)cc(C)c1F` (stereo in doubt) [Compound 712, 3-[(1S,2S)-1-[5-[(4S)-2,2-dimethyltetrahydropyran-4-yl]-3-fluoro-2-[(1S,8R)-4-(4-fluoro-3,5-dimethyl-phenyl)-3-[3-(4-fluoro-1-methyl-indazol-5-yl)-2-oxo-imidazol-1-yl]-4,5,11-triazatricyclo[6.2.1.02,6]undeca-2,5-diene-11-carbonyl]indol-1-yl]-2-methyl-cyclopropyl]-4H-1,2,4-oxadiazol-5-one], the half-maximal effective concentration (EC50) is 0.112 µM.
With `Cc1cc(-n2nc3c(c2-n2ccn(-c4ccc5c(cnn5C)c4F)c2=O)[C@@H]2CC[C@H](C3)N2C(=O)c2c(F)c3cc(C4CCOC(C)(C)C4)ccc3n2[C@@]2(c3noc(=O)[nH]3)C[C@@H]2C)cc(C)c1F` (stereo in doubt) [Compound 713, 3-[(1S,2S)-1-[5-[(4R)-2,2-dimethyltetrahydropyran-4-yl]-3-fluoro-2-[(1S,8R)-4-(4-fluoro-3,5-dimethyl-phenyl)-3-[3-(4-fluoro-1-methyl-indazol-5-yl)-2-oxo-imidazol-1-yl]-4,5,11-triazatricyclo[6.2.1.02,6]undeca-2,5-diene-11-carbonyl]indol-1-yl]-2-methyl-cyclopropyl]-4H-1,2,4-oxadiazol-5-one] the figure was 0.004 µM; with `Cc1cc(-n2nc3c(c2-n2ccn(-c4ccc5ccncc5c4F)c2=O)[C@@H]2CCC[C@H](C3)N2C(=O)c2cc3cc([C@H]4CCOC5(CC5)C4)ccc3n2[C@@]2(c3noc(=O)[nH]3)C[C@@H]2C)cc(C)c1F` [Compound 610, 3-((1S,2S)-1-(2-((4S,8R)-2-(4-fluoro-3,5-dimethylphenyl)-3-(3-(8-fluoroisoquinolin-7-yl)-2-oxo-2,3-dihydro-1H-imidazol-1-yl)-4,5,6,7,8,9-hexahydro-2H-4,8-epiminocycloocta [c]pyrazole-10-carbonyl)-5-((S)-4-oxaspiro[2.5]octan-7-yl)-1H-indol-1-yl)-2-methylcyclopropyl)-1,2,4-oxadiazol-5 (4H)-one], 0.0008 µM; with `CNC(=O)Cc1ccc(-n2ccn(-c3c4c(nn3-c3cc(C)c(F)c(C)c3)C[C@H]3CCC[C@@H]4N3C(=O)c3cc4cc([C@H]5CCOC(C)(C)C5)ccc4n3[C@@]3(c4noc(=O)[nH]4)C[C@@H]3C)c2=O)cc1F` [Compound 611, 2-(4-(3-((4S,8R)-10-(5-((S)-2,2-dimethyltetrahydro-2H-pyran-4-yl)-1-((1S,2S)-2-methyl-1-(5-oxo-4,5-dihydro-1,2,4-oxadiazol-3-yl)cyclopropyl)-1H-indole-2-carbonyl)-2-(4-fluoro-3,5-dimethylphenyl)-4,5,6,7,8,9-hexahydro-2H-4,8-epiminocycloocta [c]pyrazol-3-yl)-2-oxo-2,3-dihydro-1H-imidazol-1-yl)-2-fluorophenyl)-N-methylacetamide], 0.0051 µM.
`Cc1cc(-n2nc3c(c2-n2ccn(-c4ccc(N(C)C(=O)C5CC5)c(Cl)c4)c2=O)[C@@H]2CCC[C@H](C3)N2C(=O)c2cc3cc([C@H]4CCOC(C)(C)C4)ccc3n2[C@@]2(c3noc(=O)[nH]3)C[C@@H]2C)cc(C)c1F` [Compound 612, N-(2-chloro-4-(3-((4S,8R)-10-(5-((S)-2,2-dimethyltetrahydro-2H-pyran-4-yl)-1-((1S,2S)-2-methyl-1-(5-oxo-4,5-dihydro-1,2,4-oxadiazol-3-yl)cyclopropyl)-1H-indole-2-carbonyl)-2-(4-fluoro-3,5-dimethylphenyl)-4,5,6,7,8,9-hexahydro-2H-4,8-epiminocycloocta [c]pyrazol-3-yl)-2-oxo-2,3-dihydro-1H-imidazol-1-yl)phenyl)-N-methylcyclopropanecarboxamide] showed a concentration for a half-maximal effect (EC50) of 0.0019 µM.
Turning to `Cc1cc(-n2nc3c(c2-n2ccn(-c4ccc5c(cnn5C)c4F)c2=O)[C@@H]2CC[C@H](C3)N2C(=O)c2cc3cc([C@H]4CCOC(C)(C)C4)ccc3n2[C@@]2(c3noc(=O)n3C)C[C@@H]2C)cc(C)c1F` [Compound 613, 3-[(1S,2S)-1-[5-[(4S)-2,2-dimethyltetrahydropyran-4-yl]-2-[(1S,8R)-4-(4-fluoro-3,5-dimethyl-phenyl)-3-[3-(4-fluoro-1-methyl-indazol-5-yl)-2-oxo-imidazol-1-yl]-4,5,11-triazatricyclo[6.2.1.02,6]undeca-2,5-diene-11-carbonyl]indol-1-yl]-2-methyl-cyclopropyl]-4-methyl-1,2,4-oxadiazol-5-one], the EC50 worked out at 0.0505 µM.
As to `Cc1cc(-n2nc3c(c2-n2ccn(-c4ccc5cnccc5c4F)c2=O)[C@@H]2CCC[C@H](C3)N2C(=O)c2cc3cc([C@H]4CCOC5(CC5)C4)ccc3n2[C@@]2(c3noc(=O)[nH]3)C[C@@H]2C)cc(C)c1F` [Compound 614, 3-((1S,2S)-1-(2-((4S,8R)-2-(4-fluoro-3,5-dimethylphenyl)-3-(3-(5-fluoroisoquinolin-6-yl)-2-oxo-2,3-dihydro-1H-imidazol-1-yl)-4,5,6,7,8,9-hexahydro-2H-4,8-epiminocycloocta [c]pyrazole-10-carbonyl)-5-((S)-4-oxaspiro[2.5]octan-7-yl)-1H-indol-1-yl)-2-methylcyclopropyl)-1,2,4-oxadiazol-5 (4H)-one], the EC50 was determined as 0.0006 µM.
Consider `Cc1cc(-n2nc3c(c2-n2ccn(-c4ccc5c(cnn5C)c4F)c2=O)[C@@H]2CCC[C@H](C3)N2C(=O)c2cc3cc(C4CCOC(C)(C)C4)cc(F)c3n2[C@@]2(c3noc(=O)[nH]3)C[C@@H]2C)cc(C)c1F` (stereo partly drawn) [Compound 615, 3-((1S,2S)-1-(5-(2,2-dimethyltetrahydro-2H-pyran-4-yl)-7-fluoro-2-((4S,8R)-3-(3-(4-fluoro-1-methyl-1H-indazol-5-yl)-2-oxo-2,3-dihydro-1H-imidazol-1-yl)-2-(4-fluoro-3,5-dimethylphenyl)-4,5,6,7,8,9-hexahydro-2H-4,8-epiminocycloocta [c]pyrazole-10-carbonyl)-1H-indol-1-yl)-2-methylcyclopropyl)-1,2,4-oxadiazol-5 (4H)-one], for which the half-maximal effective concentration (EC50) was found to be 0.0142 µM.
The value for `Cc1cc(-n2nc3c(c2-n2ccn(-c4ccc5c(cnn5C5CC5)c4F)c2=O)[C@@H]2COC[C@H](C3)N2C(=O)c2cc3cc([C@H]4CCOC(C)(C)C4)ccc3n2[C@@]2(c3noc(=O)[nH]3)C[C@@H]2C)cc(C)c1F` [Compound 617, 3-((1S,2S)-1-(2-((4R,8S)-3-(3-(1-cyclopropyl-4-fluoro-1H-indazol-5-yl)-2-oxo-2,3-dihydro-1H-imidazol-1-yl)-2-(4-fluoro-3,5-dimethylphenyl)-2,4,5,7,8,9-hexahydro-4,8-epiminooxocino [5,4-c]pyrazole-10-carbonyl)-5-((S)-2,2-dimethyltetrahydro-2H-pyran-4-yl)-1H-indol-1-yl)-2-methylcyclopropyl)-1,2,4-oxadiazol-5 (4H)-one] was 0.0025 µM; that for `Cc1cc(-n2nc3c(c2-n2ccn(-c4ccc5c(cnn5C)c4F)c2=O)[C@@H]2CC[C@H](C3)N2C(=O)c2cc3cc(C4CCOC(C)(C)C4)cc(F)c3n2[C@@]2(c3noc(=O)[nH]3)C[C@@H]2C)cc(C)c1F` (stereo partly drawn) [Compound 618, 3-[(1S,2S)-1-[5-(2,2-dimethyltetrahydropyran-4-yl)-7-fluoro-2-[(1S,8R)-4-(4-fluoro-3,5-dimethyl-phenyl)-3-[3-(4-fluoro-1-methyl-indazol-5-yl)-2-oxo-imidazol-1-yl]-4,5,11-triazatricyclo[6.2.1.02,6]undeca-2,5-diene-11-carbonyl]indol-1-yl]-2-methyl-cyclopropyl]-4H-1,2,4-oxadiazol-5-one] was 0.0296 µM; that for `Cc1cc(-n2nc3c(c2-n2ccn(-c4ccc5c(cnn5C)c4F)c2=O)[C@@H]2COC[C@H](C3)N2C(=O)c2cc3cc(C4CCOC(C)(C)C4)cc(F)c3n2[C@@]2(c3noc(=O)[nH]3)C[C@@H]2C)cc(C)c1F` (stereo partly drawn) [Compound 619, 3-((1S,2S)-1-(5-(2,2-dimethyltetrahydro-2H-pyran-4-yl)-7-fluoro-2-((4R,8S)-3-(3-(4-fluoro-1-methyl-1H-indazol-5-yl)-2-oxo-2,3-dihydro-1H-imidazol-1-yl)-2-(4-fluoro-3,5-dimethylphenyl)-2,4,5,7,8,9-hexahydro-4,8-epiminooxocino [5,4-c]pyrazole-10-carbonyl)-1H-indol-1-yl)-2-methylcyclopropyl)-1,2,4-oxadiazol-5(4H)-one] was 0.0054 µM.
On to `Cc1cc(-n2nc3c(c2-n2ccn(-c4ccc5c(cnn5C)c4F)c2=O)[C@@H]2CCC[C@H](C3)N2C(=O)c2cc3cc([C@@H]4CCOC(C)(C)C4)cc(F)c3n2[C@@]2(c3noc(=O)[nH]3)C[C@@H]2C)cc(C)c1F` [Compound 701, 3-((1S,2S)-1-(5-((R)-2,2-dimethyltetrahydro-2H-pyran-4-yl)-7-fluoro-2-((4S,8R)-3-(3-(4-fluoro-1-methyl-1H-indazol-5-yl)-2-oxo-2,3-dihydro-1H-imidazol-1-yl)-2-(4-fluoro-3,5-dimethylphenyl)-4,5,6,7,8,9-hexahydro-2H-4,8-epiminocycloocta [c]pyrazole-10-carbonyl)-1H-indol-1-yl)-2-methylcyclopropyl)-1,2,4-oxadiazol-5 (4H)-one], for which the EC50 is over 0.1 µM.

These data come from patent US12617783B2, “Heterocyclic GLP-1R agonists” (BIOMEA FUSION, INC., priority 2024, dated 2026).
